Measurements as given in publication PMC6356585 (Viruses, 2018).
Where a name gives a salt, the structure may show the parent alone. Read-outs that look alike come from different tables or passages of the source.

Experiments:
Vero cells = assay: Cell viability (CellTiter-Glo) of Vero cells; assay type: cell-based
ZIKV SPH [1] = assay: Autophagy compound library screen, ZIKV SPH titer (TCID50) in C6/36 cells; assay type: cell-based, Zika virus; details: for activity at 10 µM: Zika virus, read-out: ZIKV SPH Relative Titer in C6/36 Cells
ZIKV SPH [2] = assay: Autophagy compound library screen, ZIKV SPH titer (TCID50) in Vero cells; assay type: cell-based, Zika virus; details: for activity at 10 µM: Zika virus, Vero, read-out: ZIKV SPH Relative Titer in Vero Cells
C6/36 cells = assay type: cell-based, Ae. albopictus
[3] = 10 µM compound, MOI 0.1, 96 h, TCID50, ± SEM, three independent trials
[4] = 10 µM compound, MOI 0.1, 40 h, TCID50, ± SEM, three independent trials
[5] = 10 µM compound, 96 h, CellTiter-Glo, ± SEM, three independent trials
[6] = 10 µM compound, 40 h, CellTiter-Glo, ± SEM, three independent trials
[7] = C6/36, 10 µM compound, MOI 0.1, 96 h, TCID50, ± SEM, three independent trials

Compound | Vero Viability (Vero cells; 10 µM) | ZIKV SPH Relative Titer in C6/36 Cells (ZIKV SPH [1]; [3]) | ZIKV SPH Relative Titer in Vero Cells (ZIKV SPH [2]; [4]) | C6/36 Viability (C6/36 cells; [5]) | Vero Viability (Vero cells; [6]) | activity at 10 µM (ZIKV SPH [1]; [7]) [%] | C6/36 Viability (C6/36 cells; 10 µM) | activity at 10 µM (ZIKV SPH [2]; [4]) [%] | activity at 10 µM (ZIKV SPH [1]; C6/36, 96 h) [%] | activity at 10 µM (ZIKV SPH [2]; 40 h) [%]
Cc1ccc(C(=O)Nc2ccc(S(=O)(=O)[O-])c3cc(S(=O)(=O)[O-])cc(S(=O)(=O)[O-])c23)cc1NC(=O)c1cccc(NC(=O)Nc2cccc(C(=O)Nc3cc(C(=O)Nc4ccc(S(=O)(=O)[O-])c5cc(S(=O)(=O)[O-])cc(S(=O)(=O)[O-])c45)ccc3C)c2)c1.[Na+].[Na+].[Na+].[Na+].[Na+].[Na+] [Suramin·6Na] | 92.0 ± 1.2% of untreated control | 86.6 ± 23.2% of untreated control | 107.4 ± 44.8% of untreated control | 86 ± 8.4% of untreated control |  |  |  |  |  | 
COc1ccc(C[C@H]2NC[C@H](O)[C@H]2OC(C)=O)cc1 [Anisomycin] |  | 0.0 ± 0% of untreated control | 0.0 ± 0% of untreated control | 7 ± 0.9% of untreated control | 12.7 ± 4.3% of untreated control |  |  |  |  | 
CN(C)CCCn1cc(C2=C(c3c[nH]c4ccccc34)C(=O)NC2=O)c2ccccc21 [Go6850] |  | 1.4 ± 1.4% of untreated control | 1.3 ± 0.9% of untreated control | 21 ± 0% of untreated control | 36.0 ± 9% of untreated control |  |  |  |  | 
N#CC(C#N)=C(N)/C(C#N)=C/c1ccc(O)cc1 [AG112] |  | 85.5 ± 21.3% of untreated control | 77.7 ± 38.2% of untreated control | 80 ± 5.8% of untreated control | 96.7 ± 3.7% of untreated control |  |  |  |  | 
COc1cccc(-c2cc(=O)c3ccccc3o2)c1N [PD-98059] |  | 197.3 ± 40% of untreated control | 101.0 ± 23.3% of untreated control | 93 ± 8.4% of untreated control | 90.7 ± 1.3% of untreated control |  |  |  |  | 
OC[C@H]1O[C@H](O[C@H]2O[C@H](CO)[C@@H](O)[C@H](O)[C@H]2O)[C@H](O)[C@@H](O)[C@@H]1O [Trehalose] | 97.7 ± 1.5% of untreated control | not able to reduce ZIKV titers | not able to reduce ZIKV titers |  |  | 246 ± 101 | 99 ± 2.9% of untreated control |  |  | 
CN(C)C(=O)C(CCN1CCC(O)(c2ccc(Cl)cc2)CC1)(c1ccccc1)c1ccccc1 [Loperamide HCl] |  |  |  | 12 ± 6.1% of untreated control | 66.7 ± 17.4% of untreated control | 0.1 ± 0.1 |  | 11.7 ± 3.3 |  | 
COC(=O)C1=C(C)NC(C)=C([N+](=O)[O-])C1c1ccccc1C(F)(F)F (racemic) [(±)Bay K8644] |  | 39.4 ± 10.7% of untreated control | 34.9 ± 15.2% of untreated control | 53 ± 11.1% of untreated control | 94.0 ± 3% of untreated control |  |  |  |  | 
CCCC(=O)Nc1ncnc2c1ncn2[C@@H]1O[C@@H]2COP(=O)([O-])O[C@H]2[C@H]1OC(=O)CCC.[Na+] [Dibutyryl cAMP·Na] | 98.3 ± 4.4% of untreated control | 142.6 ± 63.9% of untreated control | 60.6 ± 36.7% of untreated control | 117 ± 10.7% of untreated control |  |  |  |  |  | 
O[C@@H](CS)[C@@H](O)CS [DTT] |  | 145.7 ± 16.6% of untreated control | 60.2 ± 20.1% of untreated control | 79 ± 4.4% of untreated control | 93.0 ± 1.5% of untreated control |  |  |  |  | 
Nc1ncnc2c1nc(Sc1ccc(Cl)cc1)n2[C@@H]1O[C@@H]2COP(=O)([O-])O[C@H]2[C@H]1O.[Na+] [8-CPT-cAMP·Na] |  | 60.1 ± 18.3% of untreated control | 107.8 ± 65.3% of untreated control | 75 ± 3.7% of untreated control | 92.7 ± 0.7% of untreated control |  |  |  |  | 
C[C@H](CCC(=O)O)C[C@H](C)C[C@H](C)C(=O)/C=C(\O)[C@H](C)C[C@H](C)C/C=C/[C@@H](C)[C@@H](O)[C@@H](C)[C@@H](O)C[C@@H]1CC[C@@](C)([C@H]2CC[C@@](C)([C@@H](C)O)O2)O1 [Ionomycin] |  |  |  | 1 ± 0.3% of untreated control | 27.7 ± 10.4% of untreated control | 0 |  | 0 |  | 
Cl.O=C(NCc1ccncc1)C12CC3C[C@H](C1)CC(c1ccc(Cl)cc1)(C3)C2 [ABC294640·HCl] | 87.7 ± 6.8% of untreated control | 26.0 ± 10.8% of untreated control | 51.7 ± 29.2% of untreated control | 32 ± 3.5% of untreated control |  |  |  |  |  | 
Penitrem A |  | 29.8 ± 6.4% of untreated control | 34.9 ± 10.4% of untreated control |  |  |  |  |  |  | 
CCN(CC)CCCCN1c2ccccc2Oc2ccc(Cl)cc21.Cl [Akt Inhibitor X·HCl] | 32.3 ± 14.2% of untreated control | 0.0 ± 0% of untreated control | 3.5 ± 3.3% of untreated control | 7 ± 1.9% of untreated control |  |  |  |  |  | 
COc1cc([C@@H]2c3cc4c(cc3[C@@H](O[C@@H]3O[C@@H]5CO[C@@H](C)O[C@H]5[C@H](O)[C@H]3O)[C@H]3COC(=O)[C@H]23)OCO4)cc(OC)c1O [Etoposide] | 84.0 ± 3.6% of untreated control |  |  | 119 ± 12.5% of untreated control |  | 737 ± 89.3 |  | 134 ± 34.3 |  | 

Compound | Vero Viability (Vero cells; 10 µM) | ZIKV SPH Relative Titer in C6/36 Cells (ZIKV SPH [1]; [3]) | ZIKV SPH Relative Titer in Vero Cells (ZIKV SPH [2]; [4]) | C6/36 Viability (C6/36 cells; [5]) | Vero Viability (Vero cells; [6]) | activity at 10 µM (ZIKV SPH [1]; [7]) [%] | C6/36 Viability (C6/36 cells; 10 µM) | activity at 10 µM (ZIKV SPH [2]; [4]) [%] | activity at 10 µM (ZIKV SPH [1]; C6/36, 96 h) [%] | activity at 10 µM (ZIKV SPH [2]; 40 h) [%]
CC(Oc1ccc(O)cc1)(P(=O)(O)O)P(=O)(O)O [L-690,330] |  | 66.8 ± 2.6% of untreated control | 40.7 ± 10.6% of untreated control | 87 ± 4.6% of untreated control | 93.7 ± 3.5% of untreated control |  |  |  |  | 
Cc1cccc(Nc2nc(-c3ccncc3)cs2)c1 [STF-62247] |  | 169.8 ± 45.9% of untreated control | 45.0 ± 21.4% of untreated control | 49 ± 9.3% of untreated control | 77.3 ± 11.7% of untreated control |  |  |  |  | 
C=CCNc1ncnc2ccc(Br)cc12 [SMER28] |  | 38.7 ± 12.2% of untreated control | 65.0 ± 5.6% of untreated control | 36 ± 5.3% of untreated control | 92.7 ± 3.5% of untreated control |  |  |  |  | 
C=CCNC1=C2C[C@@H](C)C[C@H](OC)[C@H](O)[C@@H](C)/C=C(\C)[C@H](OC(N)=O)[C@@H](OC)/C=C\C=C(/C)C(=O)NC(=CC1=O)C2=O [Compound 17-AAG, 17-AAG] |  | 18.2 ± 11.2% of untreated control | 36.4 ± 20.8% of untreated control | 79 ± 16.4% of untreated control |  |  |  |  |  | 
COC(=O)Nc1nc2ccc(C(=O)c3cccs3)cc2[nH]1 [Nocodazole] | 56.0 ± 9.6% of untreated control |  |  |  |  | 182 ± 39.5 | 58 ± 2.9% of untreated control | 28.4 ± 23.9 |  | 
COC[C@H]1OC(=O)c2coc3c2[C@@]1(C)C1=C(C3=O)[C@@H]2CCC(=O)[C@@]2(C)C[C@H]1OC(C)=O [Wortmannin] |  |  |  |  | 79.0 ± 3.1% of untreated control |  | 105 ± 5.5% of untreated control |  | 190 ± 57.8 | 46.9 ± 9
NS(=O)(=O)C#Cc1ccccc1 [Pifithrin-µ] | 49.0 ± 15% of untreated control | 75.3 ± 27.5% of untreated control | 38.5 ± 12.4% of untreated control | 72 ± 3.2% of untreated control |  |  |  |  |  | 
CC/C(=C(\c1ccccc1)c1ccc(OCCN(C)C)cc1)c1ccccc1 [Tamoxifen citrate] | 60.7 ± 18.4% of untreated control |  |  | 32 ± 11.9% of untreated control |  | 8.2 ± 7.3 |  |  |  | 
CCN(CC)CCNC(=O)c1c(C)[nH]c(/C=C2\C(=O)Nc3ccc(Cl)cc32)c1C [SU11652] | 1.0 ± 0% of untreated control |  |  |  |  | 0 | 1 ± 0% of untreated control |  |  | 
Cn1c(=O)c2c(ncn2C)n(C)c1=O [Caffeine] |  |  |  | 83 ± 4.6% of untreated control | 104.7 ± 8.6% of untreated control | 138 ± 37.7 |  |  |  | 
CCCC(CCC)C(=O)O [Sodium Valproate] | 92.7 ± 1.2% of untreated control |  |  | 111 ± 6.2% of untreated control |  | 111 ± 20.7 |  |  |  | 
Cn1cnc(N)c2ncnc1-2 [3-Methyladenine] | 90.7 ± 1.8% of untreated control |  |  | 120 ± 15.6% of untreated control |  | 155 ± 41 |  |  |  | 
O=CC[C@@H](O)[C@H](O)[C@H](O)CO [2-Deoxyglucose] | 98.7 ± 0.9% of untreated control |  |  | 73 ± 1% of untreated control |  | 109 ± 61.2 |  |  |  | 
N[C@H]1C(O)O[C@H](CO)[C@@H](O)[C@@H]1O (stereo partly drawn) [Glucosamine HCl] | 99.3 ± 1.9% of untreated control |  |  | 88 ± 5.2% of untreated control |  | 242 ± 45.8 |  |  |  | 
c1ccc2c(-c3ccncc3)c[nH]c2c1 [Rockout] | 87.7 ± 3.8% of untreated control |  |  |  |  | 96.2 ± 44.2 | 76 ± 5.2% of untreated control |  |  | 
